Measurements: PMC7262789 (Journal of medicinal chemistry, 2019)

Target: T1, recombinant sEH-P domain (N-terminal domain of sEH) (Homo sapiens, UniProt P34913)
T1 sequence (P34913 1-222): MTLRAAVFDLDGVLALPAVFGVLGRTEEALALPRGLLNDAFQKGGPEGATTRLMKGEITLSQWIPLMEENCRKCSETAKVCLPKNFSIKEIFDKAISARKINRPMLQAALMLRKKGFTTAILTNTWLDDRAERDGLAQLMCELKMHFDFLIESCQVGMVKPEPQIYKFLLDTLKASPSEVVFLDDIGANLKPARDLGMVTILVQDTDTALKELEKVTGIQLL
Experiment: FDP-based phosphatase assay, isolated sEH-P domain
Assay type: biochemical
Conditions: FDP substrate, recombinant sEH-P domain

SMILES | inhibitory potency toward sEH-P (SAR statement in words)
O=C(O)CCc1nc(-c2ccccc2F)c(-c2ccccc2)o1 [20a, 3-(4-(2-Fluorophenyl)-5-phenyloxazol-2-yl)propanoic Acid] | poorly tolerated
O=C(O)CCc1nc(-c2ccccc2Cl)c(-c2ccccc2)o1 [20b, 3-(4-(2-Chlorophenyl)-5-phenyloxazol-2-yl)propanoic Acid] | poorly tolerated
N#Cc1cccc(-c2nc(CCC(=O)O)oc2-c2ccccc2)c1 [20c, 3-(4-(3-Cyanophenyl)-5-phenyloxazol-2-yl)propanoic Acid] | retained similar potency as 5
O=C(O)CCc1nc(-c2cccc(F)c2)c(-c2ccccc2)o1 [20d, 3-(4-(3-Fluorophenyl)-5-phenyloxazol-2-yl)propanoic Acid] | retained similar potency as 5
O=C(O)CCc1nc(-c2ccc(F)cc2)c(-c2ccccc2)o1 [20e, 3-(4-(4-Fluorophenyl)-5-phenyloxazol-2-yl)propanoic Acid] | only slightly diminished the potency
O=C(O)CCc1nc(-c2ccc(C(F)(F)F)cc2)c(-c2ccccc2)o1 [20f, 3-(5-Phenyl-4-(4-(trifluoromethyl)phenyl)oxazol-2-yl)propanoic Acid] | loss of activity
N#Cc1ccc(-c2nc(CCC(=O)O)oc2-c2ccccc2)cc1 [20g, 3-(4-(4-Cyanophenyl)-5-phenyloxazol-2-yl)propanoic Acid] | loss of activity
O=C(O)CCc1nc(-c2ccc(Cl)cc2)c(-c2ccccc2)o1 [20h, 3-(4-(4-Chlorophenyl)-5-phenyloxazol-2-yl)propanoic Acid] | slightly enhanced inhibitory potency
COc1ccc(-c2nc(CCC(=O)O)oc2-c2ccccc2)cc1 [20i, 3-(4-(4-Methoxyphenyl)-5-phenyloxazol-2-yl)propanoic Acid] | decreased the activity
O=C(O)CCc1nc(-c2ccc(Cl)cc2Cl)c(-c2ccccc2)o1 [20l, 3-(4-(2,4-Dichlorophenyl)-5-phenyloxazol-2-yl)propanoic Acid] | did not lead to potency improvement
O=C(O)CCc1nc(-c2cc(Cl)cc(Cl)c2)c(-c2ccccc2)o1 [20m, 3-(4-(3,5-Dichlorophenyl)-5-phenyloxazol-2-yl)propanoic Acid] | did not lead to potency improvement
O=C(O)c1ccccc1-c1nc(-c2ccc(Cl)c(Cl)c2)c(-c2ccccc2)o1 [22c, 2-(4-(3,4-Dichlorophenyl)-5-phenyloxazol-2-yl)benzoic Acid] | did not retain this high potency
O=C(O)c1ccc(-c2nc(-c3ccc(Cl)c(Cl)c3)c(-c3ccccc3)o2)cc1 [22e, 4-(4-(3,4-Dichlorophenyl)-5-phenyloxazol-2-yl)benzoic Acid] | did not retain this high potency
O=C(O)CCCc1nc(-c2ccc(Cl)c(Cl)c2)c(-c2ccncc2)o1 [28a, 4-(4-(3,4-Dichlorophenyl)-5-(pyridin-4-yl)oxazol-2-yl)butanoic Acid] | not favored
O=C(O)CCCc1nc(-c2ccc(Cl)c(Cl)c2)c(-c2cccnc2)o1 [28b, 4-(4-(3,4-Dichlorophenyl)-5-(pyridin-3-yl)oxazol-2-yl)butanoic Acid] | not favored
O=C(O)CCCc1nc(-c2ccc(Cl)c(Cl)c2)c(-c2cccc(F)c2)o1 [28e, 4-(4-(3,4-Dichlorophenyl)-5-(3-fluorophenyl)oxazol-2-yl)butanoic Acid] | slight preference
N#Cc1cccc(-c2oc(CCCC(=O)O)nc2-c2ccc(Cl)c(Cl)c2)c1 [28g, 4-(5-(3-Cyanophenyl)-4-(3,4-dichlorophenyl)oxazol-2-yl)butanoic Acid] | slight preference
C#Cc1cccc(-c2oc(CCCC(=O)O)nc2-c2ccc(Cl)c(Cl)c2)c1 [28j, 4-(4-(3,4-Dichlorophenyl)-5-(3-ethynylphenyl)oxazol-2-yl)butanoic Acid] | slight preference
O=C(O)CSc1nc(-c2ccccc2)c(-c2ccccc2)o1 [compound 9, 2-((4,5-Diphenyloxazol-2-yl)thio)acetic Acid] | slightly diminished the potency
NC(=O)CCc1nc(-c2ccccc2)c(-c2ccccc2)o1 [compound 12, 3-(4,5-Diphenyloxazol-2-yl)propanamide] | complete loss of activity
O=C(O)CCCc1nc(-c2ccc(Cl)c(Cl)c2)co1 [compound 25, 4-(4-(3,4-Dichlorophenyl)oxazol-2-yl)butanoic Acid] | potency dropped dramatically
O=C(O)CCCc1nc(-c2ccc(Cl)c(Cl)c2)c(Br)o1 [compound 26, 4-(5-Bromo-4-(3,4-dichlorophenyl)oxazol-2-yl)butanoic Acid] | partially restored

Same assay, conditions: rigidization of the ethyl linker by a double bond

SMILES | loss of potency [fold]
O=C(O)/C=C/c1nc(-c2ccc(Cl)c(Cl)c2)c(-c2ccccc2)o1 [22a, 3-(4-(3,4-Dichlorophenyl)-5-phenyloxazol-2-yl)acrylic Acid] | 2

Same assay, conditions: second chlorine at meta position, compared with 20h

SMILES | increase in sEH-P inhibition
O=C(O)CCc1nc(-c2ccc(Cl)c(Cl)c2)c(-c2ccccc2)o1 [20k, 3-(4-(3,4-Dichlorophenyl)-5-phenyloxazol-2-yl)propanoic Acid] | more than 10 fold

Target: T2, N-terminal domain of sEH (sEH-P) (Homo sapiens, UniProt P34913)
T2 sequence (P34913 2-224): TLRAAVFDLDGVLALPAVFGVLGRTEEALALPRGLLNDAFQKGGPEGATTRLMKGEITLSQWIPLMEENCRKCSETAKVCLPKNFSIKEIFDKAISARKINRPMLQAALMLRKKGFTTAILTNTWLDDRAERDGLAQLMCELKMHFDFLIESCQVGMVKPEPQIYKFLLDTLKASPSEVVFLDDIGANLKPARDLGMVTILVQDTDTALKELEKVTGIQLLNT
Experiment: Differential scanning fluorimetry
Assay type: binding
Conditions: inhibitor 50 μM

SMILES | stabilization of the N-terminal domain in DSF
O=C(Nc1ccc(I)cc1)NC1CCCCC1 [CIU, N-cyclohexyl-N′-(4-iodophenyl)urea, reference compound] | no stabilizing effect
CC(=O)N[C@@H](CSC/C=C(\C)CC/C=C(\C)CCC=C(C)C)C(=O)O [compound 2, N-acetyl-S-farnesyl-L-cysteine] | able to stabilize

Target: T3, C-terminal domain of sEH (sEH-H) (Homo sapiens, UniProt P34913)
T3 sequence (P34913 235-555 limits assumed): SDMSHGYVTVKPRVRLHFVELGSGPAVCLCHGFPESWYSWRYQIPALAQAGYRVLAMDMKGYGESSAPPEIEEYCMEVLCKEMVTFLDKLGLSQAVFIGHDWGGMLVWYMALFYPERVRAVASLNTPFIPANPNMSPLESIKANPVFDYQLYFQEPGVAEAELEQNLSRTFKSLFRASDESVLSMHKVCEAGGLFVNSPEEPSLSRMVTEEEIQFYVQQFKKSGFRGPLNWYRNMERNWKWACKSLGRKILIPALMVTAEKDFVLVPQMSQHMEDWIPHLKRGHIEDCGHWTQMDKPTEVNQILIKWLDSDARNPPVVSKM
Experiment: Differential scanning fluorimetry
Assay type: binding
Conditions: inhibitor 50 μM

SMILES | stabilization of the C-terminal domain in DSF
O=C(Nc1ccc(I)cc1)NC1CCCCC1 [CIU, N-cyclohexyl-N′-(4-iodophenyl)urea, reference compound] | significantly increased

Target: T4, full-length human sEH (Homo sapiens, UniProt P34913)
T4 sequence (P34913 1-555): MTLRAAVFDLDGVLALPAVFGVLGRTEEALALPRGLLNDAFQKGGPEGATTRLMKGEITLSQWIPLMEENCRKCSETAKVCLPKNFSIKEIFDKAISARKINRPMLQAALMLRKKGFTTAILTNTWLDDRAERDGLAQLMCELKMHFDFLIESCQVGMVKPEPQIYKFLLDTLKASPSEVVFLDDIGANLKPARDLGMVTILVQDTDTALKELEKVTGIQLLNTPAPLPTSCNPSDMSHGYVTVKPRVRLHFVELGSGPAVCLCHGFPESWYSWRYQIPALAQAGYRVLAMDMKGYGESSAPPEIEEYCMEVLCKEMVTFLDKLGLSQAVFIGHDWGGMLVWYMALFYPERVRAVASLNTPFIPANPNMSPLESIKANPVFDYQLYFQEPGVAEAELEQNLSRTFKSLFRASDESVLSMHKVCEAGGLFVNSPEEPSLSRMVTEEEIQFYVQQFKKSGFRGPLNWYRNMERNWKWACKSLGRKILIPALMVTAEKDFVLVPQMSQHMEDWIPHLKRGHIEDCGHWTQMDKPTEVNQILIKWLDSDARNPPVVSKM
Experiment: DiFMUP-based phosphatase assay, full-length sEH
Conditions: substrate

Km [µM] | SMILES
628 | Cc1cc(=O)oc2c(F)c(OP(=O)(O)O)c(F)cc12 [DiFMUP, reference compound]

Target: T5, isolated N-terminal domain of sEH (sEH-P) (Homo sapiens, UniProt P34913)
T5 sequence (P34913 1-222): T1 sequence (P34913 1-222)
Experiment: DiFMUP-based phosphatase assay, isolated N-terminal domain
Conditions: substrate

Km [µM] | SMILES
220 | Cc1cc(=O)oc2c(F)c(OP(=O)(O)O)c(F)cc12 [DiFMUP, reference compound]
